Consider two molecules from ChEMBL document CHEMBL2429785, “Substituted Benzylspiroindolin-2-one Analogues as Positive Allosteric Modulators of the Muscarinic Acetylcholine Receptor M1” (ACS Med Chem Lett, 2013).

As usually defined, the Emax is the greatest response seen or fitted, relative to the assay's reference. In general, EC50 refers to the concentration giving half of the maximal effect. Low readings indicate higher potency in that assay, high ones lower potency in that assay.

Test [1] addresses T1, Muscarinic acetylcholine receptor M1 (Homo sapiens) (UniProt P11229).
T1 sequence (whole entry): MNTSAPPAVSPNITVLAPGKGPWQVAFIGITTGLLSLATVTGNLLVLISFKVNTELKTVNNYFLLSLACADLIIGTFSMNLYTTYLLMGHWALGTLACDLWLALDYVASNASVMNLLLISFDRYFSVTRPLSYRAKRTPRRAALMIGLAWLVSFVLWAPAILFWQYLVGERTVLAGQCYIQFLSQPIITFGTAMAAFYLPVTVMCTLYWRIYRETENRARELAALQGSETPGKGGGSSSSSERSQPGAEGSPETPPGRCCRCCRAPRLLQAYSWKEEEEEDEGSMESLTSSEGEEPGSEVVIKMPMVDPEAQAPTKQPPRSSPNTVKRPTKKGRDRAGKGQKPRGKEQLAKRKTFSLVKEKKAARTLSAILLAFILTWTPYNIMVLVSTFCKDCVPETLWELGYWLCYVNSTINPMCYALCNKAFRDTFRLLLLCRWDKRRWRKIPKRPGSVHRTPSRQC
As to the kind of experiment: Positive allosteric modulation at muscarinic acetylcholine receptor M1(unknown origin) relative to control.

Test [2] addresses T2, Muscarinic acetylcholine receptor M1 (Homo sapiens, UniProt P11229).
T2 sequence (P11229 whole entry): T1 sequence (whole entry)
Put plainly: Positive allosteric modulation at muscarinic acetylcholine receptor M1(unknown origin).

Consider `CN1CCC2(C1)C(=O)N(Cc1ccc(-c3cnn(C)c3)cc1F)c1ccccc12` (centres undefined), for which the Emax in test [1] came to 76%. Moreover, in test [2], the EC50 is 3.8 µM.
The molecule `Cn1cc(-c2ccc(CN3C(=O)C4(OCCO4)c4ccccc43)c(F)c2)cn1` yielded an Emax in test [1] of 86%. In test [2], this molecule returned an EC50 of 3.2 µM.
